Read-outs that look alike come from different tables or passages of the source. Where no end group is shown, it is not given here.
Columns and labels:
VLA-4 = conditions: in words; expressed in vitro by tumour cells and resting CD4+ T-cells; see Shimizu et al; cited from earlier work
[1] = tested on: tumor associated LDV binding sites; experiment: Binding to tumor associated LDV binding sites / tumor cells in vivo; transportation and clearance; set-up: species or system nude mice; conditions: in words
Description: (§1) In vivo experiments were performed in nude mice bearing HEp-2 and HT29 tumors obtained by injecting the nude mice subcutaneously in both flanks with from 2 to 5×10^6 HEp-2 and HT29 tumor cells and the tumors allowed to grow for three weeks.
(§2) In these experiments the nude tumor bearing mice divided into five groups were each injected subcutaneously with the ^125 I-labelled peptide
(§3) ^125 I-YGGLDVGLDVGGY (SEQ ID NO. 2).
(§4) (SEQ ID No. 2), and the uptake of labelled peptide measured against time. For this purpose the five groups were killed at intervals of 5 minutes, 30 minutes, 1 hour, 3 hours, and 6 hours after injection. At this time the blood and tumors were separately removed, weighed and counted for radioactivity, as well as samples taken from all major organs. […] At this point peptide uptake was 10.3% id per gram in blood, 4.5% id per gram in HEp-2 tumor and 3.0% id per gram in HT29 tumor.

activated platelets = conditions: Kloczewiak et al, cited from earlier work
HEp-2 tumor = experiment: In vivo uptake of 125I-labelled peptide in HEp-2 tumor borne by nude mice (Experiment 2); conditions: 5 minutes after subcutaneous injection
Description: as §1, §2, §3, §4

[2] = In vivo uptake of 125I-labelled peptide in blood of tumor-bearing nude mice (Experiment 2); conditions: 5 minutes after subcutaneous injection; nude mice bearing HEp-2 and HT29 tumors
Description: as §1, §2, §3, §4

HT29 tumor = experiment: In vivo uptake of 125I-labelled peptide in HT29 tumor borne by nude mice (Experiment 2); conditions: 5 minutes after subcutaneous injection
Description: as §1, §2, §3, §4

What does the source list for “CS1 sequence of fibronectin: 25-unit oligopeptide having the sequence SEQ ID No. 1 (DELPQLVTLPHPLLHGPEILDVPST)”?
binding to VLA-4 (VLA-4): known to bind to the cell adhesion molecule (CAM) VLA-4; binding to tumor cells in vivo [1]: bind strongly to tumor cells in vivo

Which IC50 (activated platelets; Biochemistry 1989, read-out: concentration for 50% inhibition of fibrinogen binding to activated platelets) does the source give for “HHLQLLKQLLDV [synthetic dodecapeptide, analogue of the γ400-411 residue, containing the LDV triplet (Kloczewiak et al)]” here?
The IC50 was greater than 500 µM.

What about the IC50 (activated platelets; as restated, read-out: concentration necessary to obtain 50% inhibition of fibronectin binding to activated platelets) of the same substance?
Its IC50 is greater than 500 µM.

For “^125 I-YGGLDVGLDVGGY: radio-labelled thirteen unit peptide YGGLDVGLDVGGY labelled with 125I (also: 125I radiolabel, position not given here)”, which “peptide uptake in HEp-2 tumor” value (HEp-2 tumor) is on record?
Its value is 4.5 % id per gram.

And the “peptide uptake in blood” value [2]?
Its value is 10.3 % id per gram.

What about the “peptide uptake in HT29 tumor” value (HT29 tumor) of the same substance?
Its value is 3.0 % id per gram.

Source: patent US5628979A, “Reagent for tumor imaging and therapy” (Antisoma Limited, priority 1991, dated 1997)
